pIC50: −log10 of the molar value.
Tests used:
[1] = test system: cell (Vero, T24 or A549 of Example 9; not given); test: Nucleic acid-introducing ability, luciferase-expressing plasmid (procedure of Example 9); format: cell-based
Text: A cell line established from monkey kidney (Vero cell) and a human bladder cancer cell (T24 cell) purchased from American Type Culture Collection (ATCC) and human lung cancer cell (A549 cell) purchased from Dainippon Pharmaceutical were inoculated on a 24 well culture plate (manufactured by NALGEN NUNC) at 1×10^5 cells/well. Vero cell and A549 cell were cultivated in DMEM (manufactured by Life Technologies Oriental) supplemented with 10% fetal bovine serum (hereinafter referred to as FBS, manufactured by NICHIREI), and T24 cell was cultivated in McCoy's 5a (manufactured by Life Technologies Oriental) supplemented with 10% FBS in 5% CO2 atmosphere at 37° C. for 24 hours. After removing the medium, opti-MEM (manufactured by Life Technologies Oriental) prepared to have the concentration of the luciferase-expressing plasmid prepared in Example 7 of 1 μg/mL and the concentration of the peptide prepared in Example 1 of 1.25, 2.5, or 5 μM was added, and the cells were cultivated for 5 hours. Next, in the case of Vero cell and A549 cell, the culture medium was replaced with DMEM supplemented with 10% FBS, and in the case of T24 cell, the medium was replaced with McCoy's 5a supplemented with 10% FBS, and cultivation was continued in 5% CO2 atmosphere and at 37° C. for another 24 hours. The luciferase activity expressed in the cell was then measured by the method instructed in luciferase assay system (manufactured by Promega). To be more specific, the cells were washed with phosphate-buffered saline (hereinafter referred to as PBS, manufactured by SIGMA), and the cells were lyzed with Passive Lysis Buffer attached to the kit. 20 μL of this cell lysate and 100 μL of the Luciferase Assay Reagent II attached to the kit was added to a fluorescence-measuring plate (Microlite™ 1 plate, manufactured by Dynatech), and after mixing, fluorescence was measured for 1 second by using a multilabel counter (ARVO™ SY1420 MULTILABEL COUNTER, manufactured by Wallac Beltold.
Concentration of the protein in the cell lysate was measured by mixing 8 μL of the cell lysate and 200 μL of the protein assay solution (manufactured by Biorad) with 792 μL of ultrapure water in a disposable cuvette (UV fluorescent cuvette A204X, manufactured by Funakoshi), allowing the mixture to stand for 5 minutes at room temperature, and measuring the absorption at 595 nm with a spectrophotometer (DU640, manufactured by Beckman). Bovine serum albumin (BSA) was used for the standard protein. By using the thus obtained results, count per 1 second per 1 mg of protein of the cell lysate was calculated to thereby use the count as the luciferase activity, and the highest count in the three conditions of different peptide concentration was designated the gene-introducing ability of the peptide.
It is to be noted that the nucleic acid-introducing ability was classified as described below on the bases of the fluorescent count per 1 mg of protein per 1 second (cps/mg protein).

[2] = Affinity for phosphatidyl serine (EIA, inhibition of human Factor VIII binding); conditions: class of IC50 for inhibiting human Factor VIII binding, 5% BSA
Method: The specific affinity of the peptide for phosphatidyl serine was evaluated by measuring activity of the peptide for inhibiting the binding of the human Factor VIII to phosphatidyl serine by using human Factor VIII which is known to bind to phosphatidyl serine but not to phosphatidyl choline in the presence of serum albumin. To be more specific, 100 μL of ethanol solution containing 10 μg/mL of phospholipids at a phosphatidyl serine (manufactured by SIGMA): phosphatidyl choline (manufactured by SIGMA) ratio of 3:7 was added to the wells of a 96 well plate (Immulon I, manufactured by Dynatech), and exsiccated by using a centrifugal evaporator (EC-95C, manufactured by Sakuma Seisakusho) at 40° C. for 40 minutes. 200 μL each of TBS (10 mM Tris-HCl (pH 7.4) containing 1% bovine serum albumin (BSA Fraction V, hereinafter referred to as BSA, manufactured by Seikagaku Corporation) and 0.9% (W/V) NaCl solution were added to each well, and the wells were blocked by allowing the plate to stand at 37° C. for 2.5 hours. After washing the plate with water, 100 μL of TBS solution supplemented with 5% BSA mixed with human Factor VIII (manufactured by American Diagnostica) at a final concentration 1 μg/mL and the peptide of predetermined dose prepared in Example 1 was added to each well, and the reaction was allowed to take place at 4° C. for 24 hours.
After the completion of the reaction, the human Factor VIII that became bound to the phosphatidyl serine was measured by enzyme immunoassay (EIA) in accordance with the general procedure described in a book (“Enzyme Immunoassay (3rd ed.)”, Eiji Ishikawa et al., Igaku-Shoin, 1987). To be more specific, the measurement was conducted by using anti-human Factor VIII mouse monoclonal antibody (ESH8, manufactured by American Diagnostica) for the primary antibody, horseradish peroxidase-labeled anti-mouse IgG antibody (P0260, manufactured by Daco) for the secondary antibody, and tetramethylbenzidine for the chromogenic substrate, and measuring the absorption at a wavelength of 450 nm by using a reference wavelength of 630 nm on a spectrophotometer (NJ-2100, manufactured by Intermed).
Intensity of the affinity of the peptide for the phosphatidyl serine was evaluated by using the value obtained by subtracting the absorption of the well having no human Factor VIII added thereto from the absorption of the well having only the human Factor VIII added thereto as the control value (100%), and designating the peptide concentration at which the value 0.5 was obtained when the value obtained by subtracting the absorption of the well having only the peptide added thereto from the absorption of the well having a mixture of the human Factor VIII and the peptide added thereto were divided by the control value as the IC50 value, and evaluating the intensity to be ++ when the IC50 value was up to 1 μM, and +when the intensity was more than 1 μM but not more than 10 μM. It is to be noted that the specific affinity was evaluated to be none when the intensity was 10 μM or more.

[3] = test system: plasmid (pUC119); test: Binding ability to plasmid (electrophoresis); conditions: charge ratio (+/−ratio) of 3
Method: The plasmid prepared by the procedure described in Example 7 (pUC119; final concentration, 20 μg/mL) and the peptides prepared by the procedure described in Examples 1 to 3 were mixed in 20 mM Tris HCl buffer (pH=7.2) containing 150 mM NaCl at a charge ratio (+/−ratio) of 0 to 3, and the mixture was allowed to stand at 37° C. for 30 minutes. Electrophoresis was then conducted on 1% agarose gel to thereby determine the binding of the plasmid and the peptide.
The +/−ratio (charge ratio) indicated in FIG. 11 is the ratio of the number (+) of the positively-charged groups in the peptide to the number (−) of negatively-charged groups in the plasmid. As evident in FIG. 11, the amount of plasmid that became bound to the peptide increased with the increase in the charge ratio (+/−ratio), and the plasmid was fully bound to the peptide at a charge ratio (+/−ratio) of 3. The peptides of SEQ ID NO:2 to SEQ ID NO:24 were also found to bind at a charge ratio (+/−ratio) of 3.

Question: With “SEQ ID NO: 1: peptide having the amino acid sequence of SEQ ID NO:1, made by solid phase synthesis (TRYLRIHPRSWVHQIALRLRYLRIHPRSWVHQIALRS; synthetic peptide using an automatic peptide synthesizer)” as the substance, how does the Nucleic acid-introducing ability ([1]; class of fluorescent count per 1 mg of protein per 1 second, highest of peptide 1.25, 2.5, 5 μM, plasmid 1 μg/mL) read?
Answer: 3+ (1,000,000 to less than 10,000,000)

Question: And the “ability of introducing the nucleic acid into a cell” value ([1]; procedure of Example 9, luciferase-expressing plasmid)?
Answer: found to have the ability of introducing the nucleic acid into a cell

Question: And the pIC50 [2]?
Answer: > 6.00

Question: What about the “binding of plasmid to the peptide” value [3] of the same substance?
Answer: fully bound

Reference: patent US20040171795A1, “Novel peptides” (priority 2000, published 2004)
